For 18 compounds, IC50 results are on record in US20170275270A1, “BENZYL SUBSTITUTED INDAZOLES” (Bayer Pharma Aktiengesellschaft, priority 2014, published 2017).

The subject of experiment [1] is HeLa human cervical tumor cells. Put plainly: Proliferation assay (HeLa+Paclitaxel).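 Also: compounds at 0.001-10 µM added 4 h after paclitaxel, 92 h exposure, absorbance normalized to zero-point plate (0%) and untreated cells (100%), IC50 from 4-parameter fit.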 Particulars: read-out: Biological Assay 3: HeLa + Paclitaxel IC50, 3 nM paclitaxel, crystal violet.
Another experiment concerns HeLa. Put plainly: Proliferation assay (HeLa cell line).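 Also: crystal violet staining of cell number, scaled between a plate stained before dosing (0%) and cells left untreated (100%), compounds tested at 0.001-10 µM, IC50 via 4-parameter fit.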 Conditions: Homo sapiens, 96 h, read-out: Biological Assay 2: Proliferation assay (HeLa cell line) median IC50.
In a further experiment the target is Bub1 (Homo sapiens, UniProt O43683). Put plainly: Formation-Assay: phosphorylation status of histone 2A by inhibition of kinase activity of Bub1. In kind it is cell-based. Conditions: Biological Assay 4.1: H2A Formation IC50, co-treatment with Nocodazole 1 μg/ml, 16 h. The protocol: Biological Assay 4.1: Formation-Assay
Cell-Based Mechanistic Assay: Changes of Phosphorylation Status of Histone 2A by Inhibition of Kinase Activity of Bub1
This assay determines the suppression of histone 2A phosphorylation by a Bub1 kinase inhibitor during co-treatment with Nocodazole. 25000 cells (cells were ordered from ATCC) were seeded in 96 well plate for 5 h at 37° C. Cells were treated with Nocodazole (1 μg/ml) and varying concentrations (between 3 nM and 10 μM) of test compounds for 16 h. Cells were fixed (20 min, Fixing solution R&D), washed three times with PBS and blocked with Odyssey blocking buffer before incubating with the primary antibody against phosphorylated H2A (5 μg/ml ABIN482721) overnight at 2-8° C. After washing, secondary IRDye-labeled antibody mix with cell stains was added for 1 h and washed again with PBS. Plates were scanned with LiCor Odyssey Infrared Imager CLx at 800 nm for P-H2A and at 700 nm for cell stains Draq5/Sapphire. The quotient of 800 nm and 700 nm for Nocodazole only treated cells was set as 100% and the quotient of 800 nm and 700 nm of untreated cells was set as 0%.
Histone H2A is an immediate intracellular substrate of Bub1 kinase. Determination of the phosphorylation status of Histone H2A provides a direct measure of the intracellular activity of Bub1 kinase.

For experiment [2], the target named is T1, catalytic domain of human Bub1 (amino acids 704-1085) (Homo sapiens, UniProt O43683).
T1 construct: catalytic domain of human Bub1 (amino acids 704-1085); His6 (N); made in house; host or cells: Hi5 insect cells
As to the kind of experiment: Bub1 kinase assay (TR-FRET). Type of experiment: biochemical. The gist of the method:
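TR-FRET read-out (Eu-anti-mouse IgG/anti-phosphoserine antibody to streptavidin-XL665 on biotinylated peptide) after EDTA stop and 1 h complex formation at 22° C. Kinase reaction ran 60 min at 22° C with 1:3.4 serial dilutions from 2 mM DMSO stocks. IC50 from 4-parameter logistic fit of normalized inhibition.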
A general note: TR-FRET usually uses a lanthanide donor and a delayed reading to cut background.

[3] abbreviates: Biological Assay 1: Bub1 kinase assay median IC50, 10 μM ATP.
Setting [4] is: 10 μM ATP, read-out: Biological Assay 1: Bub1 kinase assay median IC50.

Each structure is given as a SMILES string. Structures can show the parent of a compound that is named as a salt. Where two headings read alike, the source gives them in different places.

T1 sequence (O43683 704-1085): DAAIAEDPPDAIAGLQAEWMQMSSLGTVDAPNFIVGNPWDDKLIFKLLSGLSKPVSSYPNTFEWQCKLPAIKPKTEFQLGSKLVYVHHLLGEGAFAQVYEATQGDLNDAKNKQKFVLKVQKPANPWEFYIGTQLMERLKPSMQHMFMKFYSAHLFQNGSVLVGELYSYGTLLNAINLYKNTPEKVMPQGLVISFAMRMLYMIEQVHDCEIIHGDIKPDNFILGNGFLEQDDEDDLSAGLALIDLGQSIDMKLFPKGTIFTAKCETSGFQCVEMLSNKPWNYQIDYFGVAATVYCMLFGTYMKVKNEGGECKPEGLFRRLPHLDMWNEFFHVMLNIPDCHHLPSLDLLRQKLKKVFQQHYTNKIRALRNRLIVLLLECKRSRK
Sequence of Bub1 (O43683 whole entry): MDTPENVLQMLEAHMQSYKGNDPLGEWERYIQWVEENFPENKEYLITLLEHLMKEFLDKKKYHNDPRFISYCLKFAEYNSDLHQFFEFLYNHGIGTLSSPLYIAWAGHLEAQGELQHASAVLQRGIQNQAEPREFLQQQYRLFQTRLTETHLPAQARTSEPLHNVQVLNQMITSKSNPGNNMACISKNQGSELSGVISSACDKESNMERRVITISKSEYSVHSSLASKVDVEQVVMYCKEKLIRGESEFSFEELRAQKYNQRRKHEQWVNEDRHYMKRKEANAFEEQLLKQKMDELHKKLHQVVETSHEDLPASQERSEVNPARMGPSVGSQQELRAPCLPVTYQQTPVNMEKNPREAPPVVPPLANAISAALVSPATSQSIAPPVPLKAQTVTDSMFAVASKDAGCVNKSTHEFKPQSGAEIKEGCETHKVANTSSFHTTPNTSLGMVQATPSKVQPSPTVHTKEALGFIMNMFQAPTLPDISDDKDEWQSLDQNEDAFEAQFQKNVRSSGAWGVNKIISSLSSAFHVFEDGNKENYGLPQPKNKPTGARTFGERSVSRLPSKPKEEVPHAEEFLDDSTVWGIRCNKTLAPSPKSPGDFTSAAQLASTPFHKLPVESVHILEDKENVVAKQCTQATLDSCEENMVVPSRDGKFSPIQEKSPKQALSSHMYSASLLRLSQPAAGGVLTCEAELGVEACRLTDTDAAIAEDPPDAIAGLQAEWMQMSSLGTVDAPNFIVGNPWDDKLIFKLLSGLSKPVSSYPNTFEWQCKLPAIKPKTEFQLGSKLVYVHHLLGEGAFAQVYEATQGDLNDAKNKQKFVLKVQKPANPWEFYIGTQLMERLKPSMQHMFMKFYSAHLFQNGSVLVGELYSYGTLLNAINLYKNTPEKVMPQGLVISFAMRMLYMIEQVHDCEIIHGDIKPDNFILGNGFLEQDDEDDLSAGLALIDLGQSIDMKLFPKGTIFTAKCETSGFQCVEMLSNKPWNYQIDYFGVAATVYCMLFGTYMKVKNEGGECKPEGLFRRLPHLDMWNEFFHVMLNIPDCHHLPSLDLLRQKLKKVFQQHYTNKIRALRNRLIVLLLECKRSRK

With `CCOc1cc(F)c(Cn2nc(-c3ncc(C4CCNCC4)c(Nc4ccncc4)n3)c3ccccc32)c(F)c1` [Example 2-17-1, 2-[1-(4-ethoxy-2,6-difluorobenzyl)-1H-indazol-3-yl]-5-(piperidin-4-yl)-N-(pyridin-4-yl)pyrimidin-4-amine], the IC50 stood at 170 nM in experiment [1], 1100 nM in the experiment with HeLa, 12 nM on Bub1 and 6.1 nM in experiment [2] (setting [3]).

With `CCOc1cc(F)c(Cn2nc(-c3nc(Nc4ccnc(C)n4)cc(C(F)(F)F)n3)c3ccccc32)c(F)c1` [Example 2-12-83, 2-[1-(4-ethoxy-2,6-difluorobenzyl)-1H-indazol-3-yl]-N-(2-methylpyrimidin-4-yl)-6-(trifluoromethyl)pyr-imidin-4-amine], the IC50 in experiment [1] was 350 nM; in the experiment on HeLa, > 10000 nM; on Bub1, 31 nM; in experiment [2] (setting [3]), > 20000 nM.

Regarding `COCc1cc(Nc2ccnc(C)c2)nc(-c2nn(Cc3c(F)cc(OCCO)cc3F)c3ccccc23)n1` [Example 2-12-51, 2-{3,5-difluoro-4-[(3-{4-(methoxymethyl)-6-[(2-methylpyridin-4-yl)amino]pyrimidin-2-yl}-1H-indazol-1-yl)methyl]phenoxy}eth-anol], the IC50 in experiment [1] worked out at 340 nM; in the experiment on HeLa it was 410 nM; on Bub1, 570 nM; in experiment [2] (setting [3]), 45 nM.

Take `CCOc1cc(F)c(Cn2nc(-c3nc(COC)cc(Nc4ccncc4)n3)c3ccccc32)c(F)c1` [Example 2-12-4, 2-[1-(4-ethoxy-2,6-difluorobenzyl)-1H-indazol-3-yl]-6-(methoxymethyl)-N-(pyridin-4-yl)pyrimidin-4-amine]: the IC50 in experiment [1] stood at 420 nM; in the experiment on HeLa, 1800 nM; on Bub1, 8.9 nM; in experiment [2] (setting [3]), 5.2 nM.

Turning to `CCOc1cc(F)c(Cn2nc(-c3nc(C)c(F)c(Nc4ccnc(C(F)(F)F)c4)n3)c3ccccc32)c(F)c1` [Example 2-12-21, 2-[1-(4-ethoxy-2,6-difluorobenzyl)-1H-indazol-3-yl]-5-fluoro-6-methyl-N-[2-(trifluoromethyl)pyridin-4-yl]pyrimidin-4-amine], the IC50 in experiment [1] is 670 nM; in the experiment on HeLa, > 10000 nM; at Bub1 it was 38 nM.

As for `CCOc1cc(F)c(Cn2nc(-c3ncc(C4CCN(CC(F)(F)F)CC4)c(Nc4ccnc(C)c4)n3)c3ccccc32)c(F)c1` [Example 2-20-5, 2-[1-(4-ethoxy-2,6-difluorobenzyl)-1H-indazol-3-yl]-N-(2-methylpyridin-4-yl)-5-[1-(2,2,2-trifluoroethyl)piperidin-4-yl]pyrimidin-4-amine], the IC50 in experiment [1] was determined as 210 nM; with HeLa it was 3600 nM; at Bub1, 0.5 nM; in experiment [2] (setting [3]), 68 nM.

As to `CCOc1cc(F)c(Cn2nc(-c3nc4c(c(Nc5ccnc(C)n5)n3)CC(C)(C)C4)c3ccccc32)c(F)c1` [Example 2-12-60, 2-[1-(4-ethoxy-2,6-difluorobenzyl)-1H-indazol-3-yl]-6,6-dimethyl-N-(2-methylpyrimidin-4-yl)-6,7-dihydro-5H-cyclopenta[d]pyrimidin-4-amine], the IC50 in experiment [1] was 86 nM; with HeLa, > 10000 nM; at Bub1 it was 3.9 nM; in experiment [2] (setting [3]) it was 38 nM.

As to `CCOc1cc(F)c(Cn2nc(-c3ncc(CC4CNC4)c(Nc4ccnc(C(F)F)c4)n3)c3ccccc32)c(F)c1` [Example 2-9-9, 5-(azetidin-3-ylmethyl)-N-[2-(difluorometh-yl)pyridin-4-yl]-2-[1-(4-ethoxy-2,6-difluorobenzyl)-1H-indazol-3-yl]pyrimidin-4-amine, salt with hydrochloric acid], the IC50 turned out to be 190 nM in experiment [1], 2300 nM in the experiment on HeLa, 2.7 nM on Bub1 and 52 nM in experiment [2] (setting [4]).

Consider `CCOc1cc(F)c(Cn2nc(-c3ncc(C4CNC4)c(Nc4ccncc4)n3)c3ccccc32)c(F)c1` [Example 2-9-1, 5-(azetidin-3-yl)-2-[1-(4-ethoxy-2,6-difluorobenzyl)-1H-indazol-3-yl]-N-(pyridin-4-yl)pyrimidin-4-amine, salt with hydrochloric acid], for which the IC50 with HeLa amounted to 1300 nM; at Bub1, 17 nM; in experiment [2] (setting [4]), 9.4 nM.

In the case of `CCOc1cc(F)c(Cn2nc(-c3nc4c(c(Nc5ccncc5)n3)CCC4)c3ccccc32)c(F)c1` [Example 2-12-2, 2-[1-(4-ethoxy-2,6-difluorobenzyl)-1H-indazol-3-yl]-N-(pyridin-4-yl)-6,7-dihydro-5H-cyclopenta[d]pyrimidin-4-amine], the IC50 was 390 nM in experiment [1], 2100 nM with HeLa, 180 nM at Bub1 and 12 nM in experiment [2] (setting [4]).

Turning to `CCOc1cc(F)c(Cn2nc(-c3ncc(OCC(=O)N4CC(F)(F)C4)c(Nc4ccncc4)n3)c3ccccc32)c(F)c1` [Example 3-5-1, 1-(3,3-difluoroazetidin-1-yl)-2-({2-[1-(4-ethoxy-2,6-difluorobenzyl)-1H-indazol-3-yl]-4-(pyridin-4-ylamino)pyrimidin-5-yl}oxy)ethanone, reference compound], the IC50 in the experiment on HeLa stood at 3900 nM; on Bub1 it was 360 nM; in experiment [2] (setting [3]), 8 nM.

With `CCOc1cc(F)c(Cn2nc(-c3ncc(C4CCN(CC(F)F)CC4)c(Nc4ccncc4OC)n3)c3ccccc32)c(F)c1` [Example 2-11-5, 5-[1-(2,2-difluoroethyl)piper-idin-4-yl]-2-[1-(4-ethoxy-2,6-difluorobenzyl)-1H-indazol-3-yl]-N-(3-methoxypyridin-4-yl)pyrimidin-4-amine], the IC50 in the experiment on HeLa came to 1700 nM; at Bub1 it was 8.3 nM; in experiment [2] (setting [3]), 23 nM.

As for `CCOc1cc(F)c(Cn2nc(-c3ncc(CCS(C)(=O)=O)c(Nc4ccncc4)n3)c3ccccc32)c(F)c1` [Example 2-3-1, 2-[1-(4-ethoxy-2,6-difluorobenzyl)-1H-indazol-3-yl]-5-[2-(methylsulfonyl)ethyl]-N-(eparate-4-yl)pyrimidin-4-amine], the values for the IC50 (in the experiment with HeLa; on Bub1; in experiment [2] (setting [3])) were 3500 nM, 2300 nM and 6.1 nM, respectively.

On to `CCOc1cc(F)c(Cn2nc(-c3ncc(CCCS(C)(=O)=O)c(Nc4ccncc4)n3)c3ccccc32)c(F)c1` [Example 2-3-2, 2-[1-(4-ethoxy-2,6-difluorobenzyl)-1H-indazol-3-yl]-5-[3-(methylsulfonyl)propyl]-N-(pyridin-4-yl)pyrimidin-4-amine], for which the IC50 was 2800 nM in the experiment with HeLa, 990 nM at Bub1 and 9 nM in experiment [2] (setting [3]).

Consider `CC(=O)Nc1cc(Nc2nc(-c3nn(Cc4c(F)cc(OCCO)cc4F)c4ccccc34)nc3c2CCC3)ccn1` [Example 2-4-6, N-{4-[(2-{1-[2,6-difluoro-4-(2-hydroxyethoxy)benzyl]-1H-indazol-3-yl}-6,7-dihydro-5H-cyclopenta[d]pyrimidin-4-yl)amino]pyridin-2-yl}acetamide], for which the values for the IC50 (in the experiment on HeLa; on Bub1; in experiment [2] (setting [3])) were 2100 nM, 130 nM and 9.9 nM, respectively.

Consider `CCOc1cc(F)c(Cn2nc(-c3nc4c(c(Nc5ccnc(C(F)(F)F)c5)n3)CNCC4)c3ccccc32)c(F)c1` [Example 2-9-17, 2-[1-(4-ethoxy-2,6-difluorobenzyl)-1H-indazol-3-yl]-N-[2-(trifluorometh-yl)pyridin-4-yl]-5,6,7,8-tetrahydro-pyrido[4,3-d]pyr-imidin-4-amine], for which the IC50 turned out to be 130 nM in experiment [1], 2100 nM in the experiment with HeLa and 2 nM on Bub1.

For the compound `Cc1nccc(Nc2nc(-c3nn(Cc4c(F)cc(OCCO)cc4F)c4ccccc34)ncc2C2CCN(CC(F)F)CC2)n1` [Example 2-6-17, 2-{4-[(3-{5-[1-(2,2-difluoroethyl)piperidin-4-yl]-4-[(2-methylpyrimidin-4-yl)amino]pyrimidin-2-yl}-1H-indazol-1-yl)methyl]-3,5-difluorophenoxy} ethanol], the figures for the IC50 (in the experiment on HeLa; at Bub1; in experiment [2] (setting [3])) were 6800 nM, 6 nM and 58 nM, respectively.

Turning to `CCOc1cc(F)c(Cn2nc(-c3nc(Nc4cc(C)ncc4C)cc(C(F)(F)F)n3)c3ccccc32)c(F)c1` [Example 2-12-82, N-(2,5-dimethylpyridin-4-yl)-2-[1-(4-ethoxy-2,6-difluorobenzyl)-1H-indazol-3-yl]-6-(trifluoromethyl)pyr-imidin-4-amine], the IC50 is 30 nM on Bub1 and > 20000 nM in experiment [2] (setting [4]).
